Measurements reported in publication PMC11219871, “Epigenetic-based differentiation therapy for Acute Myeloid Leukemia” (Nature Communications, 2024).
Several values for one entry are separate records, joined by “and”; a condition that tells them apart may be missing. Identical values can stand only once.

Assays:
HDAC9 = target: T1, HDAC9 (Homo sapiens, UniProt Q9UKV0); assay: HDAC assay (Eurofins); format: biochemical
T1 construct: purchased Eurofins (contracted assay service)

MV4-11 = assay: q-RT-PCR of MYC, CDKN2A, CDKN1A, GATA2, TAL1, CEBPA, SPI1; format: cell-based, human
Protocol: (§1) RNA was extracted with TRIzol Reagent (Invitrogen) according to the manufacturer’s instructions. First, cDNA was synthesized from 1 µg of total RNA using the PrimeScript RT reagent Kit (Perfect Real Time) (Cat No RR037A, TaKaRa) following the manufacturer’s instructions. The quality of cDNA was checked by a multiplex PCR that amplifies PBGD, ABL, BCR and β2-MG genes. […] The following program conditions were used for the q-PCR: 50 °C for 2 min, 95 °C for 60 s following by 45 cycles at 95 °C for 15 s and 60 °C for 60 s; melting program, one cycle at 95 °C for 15 s, 40 °C for 60 s, and 95 °C for 15 s. The relative expression of each gene was quantified by the […] method using the gene GUS as an endogenous control. The sequence of primers used can be found in Supplementary Table 10.

HL-60 = assay: as above; format: cell-based, human
Protocol: as §1

[1] = tested on: LINE-1 DNA methylation in HL-60; assay: LINE-1 pyrosequencing; format: cell-based, human
Protocol: (§2) DNA methylation of the repetitive element LINE-1 was analyzed using a pyrosequencing technique. […] Cells were washed twice with PBS, and then genomic DNA was extracted using a DNA Kit (Nucleo Spin Tissue, Cat No 74095250, Macherey-Nagel) following the manufacturer's instructions. DNA purity and concentration were measured using a NanoDrop spectrophotometer (Thermo Scientific). A 1 μg amount of genomic DNA was treated and modified using a CpGenome DNA modification Kit (Cat No S7820, Chemicon International) following the manufacturer's instructions. […] [NT]) in a final volume of 25 μL. The resulting biotinylated PCR products were immobilized to Streptavidin Sepharose ® High-Performance beads (GE Healthcare) and processed to yield high-quality ssDNA using the PyroMark Vacuum Prep Workstation (Biotage) according to the manufacturer's instructions. The pyrosequencing reactions were performed using the PyromarkTM ID (Biotage), and sequence analysis was performed using the PyroQ-CpG analysis software (Biotage).

[2] = tested on: LINE-1 DNA methylation in ML-2; assay: LINE-1 pyrosequencing; format: cell-based, human
Protocol: as §2

[3] = tested on: LINE-1 DNA methylation in MOLM-13; assay: LINE-1 pyrosequencing; format: cell-based, human
Protocol: as §2

[4] = tested on: LINE-1 DNA methylation in MV4-11; assay: LINE-1 pyrosequencing; format: cell-based, human
Protocol: as §2

[5] = MV4-11, daily treatment for 48 h, replicates 1-3
[6] = HL-60, replicates 1-3 (Figure 2E)
[7] = HL-60, replicates 1-3 (Figure 2G)
[8] = HL-60 treated daily for 48 h, replicates (Fig 6F)

T1 sequence (Q9UKV0 whole entry): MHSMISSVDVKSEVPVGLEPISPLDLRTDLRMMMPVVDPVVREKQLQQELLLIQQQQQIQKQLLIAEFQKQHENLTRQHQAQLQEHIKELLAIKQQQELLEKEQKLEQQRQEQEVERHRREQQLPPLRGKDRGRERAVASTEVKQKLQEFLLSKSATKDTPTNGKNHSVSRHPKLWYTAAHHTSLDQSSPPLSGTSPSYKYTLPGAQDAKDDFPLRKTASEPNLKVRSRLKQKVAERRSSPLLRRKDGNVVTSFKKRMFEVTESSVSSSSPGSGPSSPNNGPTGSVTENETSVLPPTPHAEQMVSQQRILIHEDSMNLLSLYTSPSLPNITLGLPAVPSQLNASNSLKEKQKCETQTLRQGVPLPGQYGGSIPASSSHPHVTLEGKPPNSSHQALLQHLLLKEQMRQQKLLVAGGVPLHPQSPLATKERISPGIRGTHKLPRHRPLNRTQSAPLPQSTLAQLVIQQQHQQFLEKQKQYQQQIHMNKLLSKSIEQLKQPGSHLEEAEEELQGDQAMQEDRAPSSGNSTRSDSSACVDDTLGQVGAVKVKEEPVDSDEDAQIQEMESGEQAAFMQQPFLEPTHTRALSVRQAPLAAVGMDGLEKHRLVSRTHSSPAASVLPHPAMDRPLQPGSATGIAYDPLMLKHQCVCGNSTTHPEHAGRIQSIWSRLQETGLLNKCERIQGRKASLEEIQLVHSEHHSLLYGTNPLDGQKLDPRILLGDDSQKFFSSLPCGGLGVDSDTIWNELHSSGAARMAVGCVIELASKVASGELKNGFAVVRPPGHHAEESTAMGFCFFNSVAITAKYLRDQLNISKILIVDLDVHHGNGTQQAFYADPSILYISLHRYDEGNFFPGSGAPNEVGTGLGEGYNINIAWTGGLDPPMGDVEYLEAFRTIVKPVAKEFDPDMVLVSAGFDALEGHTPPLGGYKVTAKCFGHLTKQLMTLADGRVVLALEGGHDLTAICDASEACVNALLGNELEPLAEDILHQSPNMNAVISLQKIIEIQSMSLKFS

COc1cc2nc(-c3cc(C)oc3C)cc(NCC3CCN(c4ncc(C(=O)NO)cn4)CC3)c2cc1OC [CM-1758, 2-[4-[[[2-(2,5-dimethyl-3-furyl)-6,7-dimethoxy-4-quinolyl]amino]methyl] -1-piperidyl]pyrimidine-5-carbohydroxamic acid]
IC50 (HDAC9): 92 nM
inhibition at 10 µM (HDAC9; 10 µM): 97%
q-PCR of CEBPA, log10 (2-ΔΔCt) (MV4-11; [5]): 1.278 and 1.212 and 1.279
q-PCR of GATA2, log10 (2-ΔΔCt) (MV4-11; [5]): 2.088 and 2.042 and 2.015
q-PCR of MYC, log10 (2-ΔΔCt) (MV4-11; [5]): -0.6051 and -0.8193 and -0.727
q-PCR of SPI1, log10 (2-ΔΔCt) (MV4-11; [5]): 0.513 and 0.595 and 0.5328
q-PCR of TAL1, log10 (2-ΔΔCt) (MV4-11; [5]): 0.8637 and 0.6983 and 1.049
CDKN1A log10 (2-ΔΔCt) (MV4-11; MV4-11, q-PCR): 0.6259 and 0.6326 and 0.6646
CDKN2A log10 (2-ΔΔCt) (MV4-11; MV4-11, q-PCR): 0.8926 and 0.6026 and 0.7418
CEBPA log10 (2-ΔΔCt) (MV4-11; MV4-11, q-PCR): 1.982 and 1.782 and 1.913
MYC log10 (2-ΔΔCt) (MV4-11; MV4-11, q-PCR): -0.7926 and -0.6522 and -0.726
SPI1 log10 (2-ΔΔCt) (MV4-11; MV4-11, q-PCR): 0.2626 and 0.2252 and 0.159
TAL1 log10 (2-ΔΔCt) (MV4-11; MV4-11, q-PCR): 0.5124 and 0.5 and 0.5901
q-PCR of CDKN1A (p21), log10 (2-ΔΔCt) (HL-60; [6]): 1.37 and 1.926 and 1.271
q-PCR of CDKN2A (p16), log10 (2-ΔΔCt) (HL-60; [6]): 0.4933 and 0.5726 and 0.5849
q-PCR of MYC, log10 (2-ΔΔCt) (HL-60; [6]): -0.8313 and -0.6255 and -0.6597
q-PCR of CEBPA, log10 (2-ΔΔCt) (HL-60; [7]): 0.9022 and 0.7826 and 0.9863
q-PCR of GATA2, log10 (2-ΔΔCt) (HL-60; [7]): 0.6526 and 0.7826 and 0.7794
q-PCR of SPI1 (PU.1), log10 (2-ΔΔCt) (HL-60; [7]): 0.3258 and 0.4025 and 0.5101
q-PCR of TAL1 (SCL), log10 (2-ΔΔCt) (HL-60; [7]): 0.0125 and 0.0025 and -0.00845
q-PCR of CEBPA (HL-60; [8]): 1.657 log10 (2-ΔΔCt) and 1.235 log10 (2-ΔΔCt) and 2.096 log10 (2-ΔΔCt)
q-PCR of GATA2 (HL-60; [8]): 0.5314 log10 (2-ΔΔCt) and 0.9421 log10 (2-ΔΔCt) and 0.9001 log10 (2-ΔΔCt)
q-PCR of MYC (HL-60; [8]): -0.7182 log10 (2-ΔΔCt) and -0.6003 log10 (2-ΔΔCt) and -0.8615 log10 (2-ΔΔCt)
q-PCR of SPI1 (HL-60; [8]): 0.5322 log10 (2-ΔΔCt) and 0.69 log10 (2-ΔΔCt) and 0.7959 log10 (2-ΔΔCt)
q-PCR of TAL1 (HL-60; [8]): 1.7134 log10 (2-ΔΔCt) and 1.966 log10 (2-ΔΔCt) and 2.209 log10 (2-ΔΔCt)
LINE-1 methylation (%) CG Position 1 Replicate 1 ([1]; HL-60, 48 h): 100%
LINE-1 methylation (%) CG Position 1 Replicate 2 ([1]; HL-60, 48 h): 100%
LINE-1 methylation (%) CG Position 2 Replicate 1 ([1]; HL-60, 48 h): 86%
LINE-1 methylation (%) CG Position 2 Replicate 2 ([1]; HL-60, 48 h): 82%
LINE-1 methylation (%) CG Position 3 Replicate 1 ([1]; HL-60, 48 h): 100%
LINE-1 methylation (%) CG Position 3 Replicate 2 ([1]; HL-60, 48 h): 100%
LINE-1 methylation (%) CG Position 4 Replicate 1 ([1]; HL-60, 48 h): 100%
LINE-1 methylation (%) CG Position 4 Replicate 2 ([1]; HL-60, 48 h): 100%
LINE-1 methylation (%) CG Position 5 Replicate 1 ([1]; HL-60, 48 h): 79%
LINE-1 methylation (%) CG Position 5 Replicate 2 ([1]; HL-60, 48 h): 83%
LINE-1 methylation (%) CG Position 1 ([1]; HL-60, 10 days): 76% and 78%
LINE-1 methylation (%) CG Position 2 ([1]; HL-60, 10 days): 61% and 65%
LINE-1 methylation (%) CG Position 3 ([1]; HL-60, 10 days): 77% and 85%
LINE-1 methylation (%) CG Position 4 ([1]; HL-60, 10 days): 87% and 93%
LINE-1 methylation (%) CG Position 5 ([1]; HL-60, 10 days): 57% and 55%
LINE-1 methylation (%) CG Position 1 ([2]; ML-2, 48 hours): 70% and 68%
LINE-1 methylation (%) CG Position 2 ([2]; ML-2, 48 hours): 72% and 74%
LINE-1 methylation (%) CG Position 3 ([2]; ML-2, 48 hours): 78% and 80%
LINE-1 methylation (%) CG Position 4 ([2]; ML-2, 48 hours): 85% and 89%
LINE-1 methylation (%) CG Position 5 ([2]; ML-2, 48 hours): 59% and 61%
LINE-1 methylation (%) CG Position 1 ([2]; ML-2, 10 days): 60%
LINE-1 methylation (%) CG Position 2 ([2]; ML-2, 10 days): 54% and 50%
LINE-1 methylation (%) CG Position 3 ([2]; ML-2, 10 days): 61% and 63%
LINE-1 methylation (%) CG Position 4 ([2]; ML-2, 10 days): 73% and 65%
LINE-1 methylation (%) CG Position 5 ([2]; ML-2, 10 days): 43% and 39%
LINE-1 methylation (%) CG Position 1 ([3]; MOLM-13, 48 hours): 99% and 97%
LINE-1 methylation (%) CG Position 2 ([3]; MOLM-13, 48 hours): 85% and 81%
LINE-1 methylation (%) CG Position 3 ([3]; MOLM-13, 48 hours): 100% and 96%
LINE-1 methylation (%) CG Position 4 ([3]; MOLM-13, 48 hours): 100%
LINE-1 methylation (%) CG Position 5 ([3]; MOLM-13, 48 hours): 70% and 82%
LINE-1 methylation (%) CG Position 1 ([3]; MOLM-13, 5 days): 69% and 59%
LINE-1 methylation (%) CG Position 2 ([3]; MOLM-13, 5 days): 63% and 69%
LINE-1 methylation (%) CG Position 3 ([3]; MOLM-13, 5 days): 78% and 80%
LINE-1 methylation (%) CG Position 4 ([3]; MOLM-13, 5 days): 83% and 87%
LINE-1 methylation (%) CG Position 5 ([3]; MOLM-13, 5 days): 58% and 54%
LINE-1 methylation (%) CG Position 1 ([4]; MV4-11, 48 hours): 85%
LINE-1 methylation (%) CG Position 2 ([4]; MV4-11, 48 hours): 80% and 74%
LINE-1 methylation (%) CG Position 3 ([4]; MV4-11, 48 hours): 87%
LINE-1 methylation (%) CG Position 4 ([4]; MV4-11, 48 hours): 95% and 97%
LINE-1 methylation (%) CG Position 5 ([4]; MV4-11, 48 hours): 69% and 65%
LINE-1 methylation (%) CG Position 1 ([4]; MV4-11, 5 days): 79% and 75%
LINE-1 methylation (%) CG Position 2 ([4]; MV4-11, 5 days): 77% and 79%
LINE-1 methylation (%) CG Position 3 ([4]; MV4-11, 5 days): 82% and 84%
LINE-1 methylation (%) CG Position 4 ([4]; MV4-11, 5 days): 92% and 86%
LINE-1 methylation (%) CG Position 5 ([4]; MV4-11, 5 days): 66% and 60%
